# In ChEMBL document CHEMBL1153674, “Synthesis and incorporation of 2-amino acid conjugated nucleotides into ribozymes” (Bioorg Med Chem Lett, 1995):
# Assay: Half-life was determined
# Type: ADME
# Details: human
row,Structure (SMILES),half-life
1,N[C@@H]1[C@H](O)[C@@H](CO)O[C@H]1n1ccc(=O)[nH]c1=O,1.5 min
2,COc1ccc(C(OCC2OC(n3ccc(=O)[nH]c3=O)C(NC(=O)[C@@H](C)NC(=O)OCC3c4ccccc4-c4ccccc43)C2O)(c2ccccc2)c2ccc(OC)cc2)cc1 (some centres undefined),13 min
3,COc1ccc(C(OCC2OC(n3ccc(=O)[nH]c3=O)C(NC(=O)[C@@H](CCCCNC(=O)OCC3c4ccccc4-c4ccccc43)NC(=O)OCC3c4ccccc4-c4ccccc43)C2O)(c2ccccc2)c2ccc(OC)cc2)cc1 (some centres undefined),11.5 min
4,COc1ccc(C(OCC2OC(n3ccc(=O)[nH]c3=O)C(NC(=O)[C@H](NC(=O)OCC3c4ccccc4-c4ccccc43)c3ccccc3)C2O)(c2ccccc2)c2ccc(OC)cc2)cc1 (some centres undefined),3 min

# The remaining lines, values ahead:
row,half-life,Structure (SMILES)
1,1 min,O=C(NCCCC[C@@H](NC(=O)OCC1c2ccccc2-c2ccccc21)C(=O)NC1C(O)C(CO)OC1n1ccc(=O)[nH]c1=O)OCC1c2ccccc2-c2ccccc21 (some centres undefined)
2,2 min,O=C(N[C@@H](C(=O)NC1C(O)C(CO)OC1n1ccc(=O)[nH]c1=O)c1ccccc1)OCC1c2ccccc2-c2ccccc21 (some centres undefined)
3,8 min,COc1ccc(C(OCC2OC(n3ccc(=O)[nH]c3=O)C(NC(=O)[C@@H](CC(=O)OCc3ccccc3)NC(=O)OCC3c4ccccc4-c4ccccc43)C2O)(c2ccccc2)c2ccc(OC)cc2)cc1 (some centres undefined)
4,1 min,O=C(C[C@@H](NC(=O)OCC1c2ccccc2-c2ccccc21)C(=O)NC1C(O)C(CO)OC1n1ccc(=O)[nH]c1=O)OCc1ccccc1 (some centres undefined)
5,1.5 min,C[C@@H](NC(=O)OCC1c2ccccc2-c2ccccc21)C(=O)NC1C(O)C(CO)OC1n1ccc(=O)[nH]c1=O (some centres undefined)
